Values joined by “and” are separate entries in the source; they are usually repeats but may differ in a detail not shown here. Identical values can stand only once. Like-named read-outs stand apart in the source and are kept apart here.
Key:
CA VI = target: T1, CA VI (Homo sapiens, UniProt P23280); assay: Fluorescent thermal shift assay (FTSA), CA VI; format: binding; details: FTSA, pH 7.0, 37 °C; read-out: Compound Dissociation Constants Kd for CA VI
T1 construct: made in house

CA I = target: T2, CA I (Homo sapiens, UniProt P00915); assay: Fluorescent thermal shift assay (FTSA), CA I; format: binding
T2 construct: made in house

CA II = target: T3, CA II (Homo sapiens, UniProt P00918); assay: Fluorescent thermal shift assay (FTSA), CA II; format: binding; details: pH 7.0, 37 °C, read-out: Compound Dissociation Constants Kd for CA II
T3 construct: made in house

CA VII = target: T4, CA VII (Homo sapiens, UniProt P43166); assay: Fluorescent thermal shift assay (FTSA), CA VII; format: binding
T4 construct: made in house

CA XII = target: T5, CA XII (Homo sapiens, UniProt O43570); assay: Fluorescent thermal shift assay (FTSA), CA XII; format: binding; details: FTSA, pH 7.0, 37 °C; read-out: Compound Dissociation Constants Kd for CA XII
T5 construct: made in house

CA XIII = target: T6, CA XIII (Homo sapiens, UniProt Q8N1Q1); assay: Fluorescent thermal shift assay (FTSA), CA XIII; format: binding; details: FTSA, pH 7.0, 37 °C; read-out: Compound Dissociation Constants Kd for CA XIII
T6 construct: made in house

[1] = FTSA, pH 7.0, 37 °C, read-out: Compound Dissociation Constants Kd for CA I
[2] = FTSA, pH 7.0, 37 °C, read-out: Compound Dissociation Constants Kd for CA VII

T4 sequence (P43166 whole entry): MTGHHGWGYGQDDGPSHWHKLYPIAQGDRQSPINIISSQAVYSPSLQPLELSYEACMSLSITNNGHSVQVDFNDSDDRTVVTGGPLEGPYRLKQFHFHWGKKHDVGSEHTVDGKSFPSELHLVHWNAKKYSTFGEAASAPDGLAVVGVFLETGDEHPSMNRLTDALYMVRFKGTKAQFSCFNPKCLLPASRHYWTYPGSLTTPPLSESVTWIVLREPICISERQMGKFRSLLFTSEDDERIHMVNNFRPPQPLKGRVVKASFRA
T6 sequence (Q8N1Q1 whole entry): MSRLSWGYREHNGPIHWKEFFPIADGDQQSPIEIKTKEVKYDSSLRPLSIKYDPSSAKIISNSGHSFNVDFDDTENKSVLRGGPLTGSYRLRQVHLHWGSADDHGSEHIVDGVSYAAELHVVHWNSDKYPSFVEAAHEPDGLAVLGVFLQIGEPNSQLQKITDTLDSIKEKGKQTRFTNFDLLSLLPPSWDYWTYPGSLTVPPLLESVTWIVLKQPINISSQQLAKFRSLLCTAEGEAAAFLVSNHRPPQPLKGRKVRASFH
T1 sequence (P23280 18-308): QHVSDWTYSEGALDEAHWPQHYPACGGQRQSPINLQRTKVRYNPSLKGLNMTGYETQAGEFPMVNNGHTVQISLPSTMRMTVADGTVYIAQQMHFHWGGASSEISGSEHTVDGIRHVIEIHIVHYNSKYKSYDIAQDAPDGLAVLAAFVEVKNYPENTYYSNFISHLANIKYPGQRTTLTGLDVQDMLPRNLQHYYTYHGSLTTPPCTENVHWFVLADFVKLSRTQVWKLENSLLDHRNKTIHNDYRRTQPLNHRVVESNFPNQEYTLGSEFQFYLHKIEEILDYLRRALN
T2 sequence (P00915 whole entry): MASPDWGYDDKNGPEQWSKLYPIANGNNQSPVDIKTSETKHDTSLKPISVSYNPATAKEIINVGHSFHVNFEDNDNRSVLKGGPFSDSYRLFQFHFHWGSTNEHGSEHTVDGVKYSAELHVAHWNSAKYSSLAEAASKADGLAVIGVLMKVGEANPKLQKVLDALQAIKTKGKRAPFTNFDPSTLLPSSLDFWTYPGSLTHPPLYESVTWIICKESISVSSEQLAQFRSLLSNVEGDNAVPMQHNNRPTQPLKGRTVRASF
T5 sequence (O43570 30-289 limits assumed): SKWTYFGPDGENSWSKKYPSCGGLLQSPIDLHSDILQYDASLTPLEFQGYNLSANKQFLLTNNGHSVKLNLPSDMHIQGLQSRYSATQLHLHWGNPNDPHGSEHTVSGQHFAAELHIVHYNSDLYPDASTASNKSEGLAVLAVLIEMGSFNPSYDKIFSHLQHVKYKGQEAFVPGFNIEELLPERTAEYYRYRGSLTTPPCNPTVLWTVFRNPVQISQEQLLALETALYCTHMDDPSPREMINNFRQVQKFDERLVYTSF

| SMILES | Kd (CA VI) [µM] | Kd (CA I; [1]) [µM] | Kd (CA II) | Kd (CA VII; [2]) [µM] | Kd (CA XII) [µM] | Kd (CA XIII) [µM] | Kd (CA I) [µM] | Kd (CA VII) [µM] | times more weakly bound to CA I than SA (CA I; ratio of Kd, FTSA) [times] | melting point [°C] | selectivity: bound to CA I times stronger than to CA II (CA I; ratio of FTSA Kd) [times] | selectivity: bound to CA I times stronger than to CA VI (CA I; ratio of FTSA Kd) [times] | selectivity: bound to CA I times stronger than to CA VII (CA I; ratio of FTSA Kd) [times] | selectivity: bound to CA I times stronger than to CA XII (CA I; ratio of FTSA Kd) [times] | selectivity: bound to CA I times stronger than to CA XIII (CA I; ratio of FTSA Kd) [times] | CA I binding in the presence (32) versus absence (34) of the diazo group (CA I; comparison of Kd of 32 and 34) |
| --- | --- | --- | --- | --- | --- | --- | --- | --- | --- | --- | --- | --- | --- | --- | --- | --- |
| NS(=O)(=O)c1ccccc1 [BSA, benzenesulfonamide] | 14 | – | – | – | – | – | – | – | – | – | – | – | – | – | – | – |
| NS(=O)(=O)c1ccc(NCCC(=O)O)cc1 [Compound 3, 3-[(4-Sulfamoylphenyl)amino]propanoic Acid] | 62.5 | 40 | 12.5 µM | 22.2 | 9.5 | 33.3 | – | – | – | – | – | – | – | – | – | – |
| CCSC(=NS(=O)(=O)c1ccc(NCCC(=O)O)cc1)SCC [Compound 4, 3-[(4-{[Bis(ethylthio)methylene]sulfamoyl}phenyl)amino]propanoic Acid] | > 200 | > 200 | 40 µM | > 200 | > 200 | > 200 | – | – | – | – | – | – | – | – | – | – |
| NS(=O)(=O)c1ccc(N2CCC(=O)NC2=O)cc1 [Compound 5, 4-(2,4-Dioxo-1,3-diazinan-1-yl)benzene-1-sulfonamide] | 12.5 | 3.85 | 0.83 µM and 0.833 µM | 1.54 | 5.56 | 8.33 | – | – | – | – | – | – | – | – | – | – |
| NS(=O)(=O)c1ccc(N2CCC(=O)NC2=S)cc1 [Compound 6, 4-(4-Oxo-2-sulfanylidene-1,3-diazinan-1-yl)benzene-1-sulfonamide] | 8.3 | 1.11 | 0.67 µM and 0.667 µM | 1.61 | 5.56 | 2.86 | – | – | – | – | – | – | – | – | – | – |
| COC(=O)CCNc1ccc(S(N)(=O)=O)cc1 [Compound 7, Methyl-3-[(4-sulfamoylphenyl)amino]propanoate] | 71.4 | – | 9.1 µM | – | 33.3 | 58.8 | 35.7 | 35.7 | – | – | – | – | – | – | – | – |
| NNC(=O)CCNc1ccc(S(N)(=O)=O)cc1 [Compound 8, 4-{[(2-Hydrazinecarbonyl)ethyl]amino}benzene-1-sulfonamide] | 62.5 | 55.6 | 10.5 µM | 28.6 | 33.3 | 76.9 | – | – | – | – | – | – | – | – | – | – |
| NC(=S)NNC(=O)CCNc1ccc(S(N)(=O)=O)cc1 [Compound 9, N-(Carbamothioylamino)-3-[(4-sulfamoylphenyl)amino]propanamide] | 50 | 58.8 | 10 µM | 28.6 | 33.3 | 76.9 | – | – | – | – | – | – | – | – | – | – |
| Nc1nnc(CCNc2ccc(S(N)(=O)=O)cc2)s1 [Compound 10, 4-{[2-(5-Amino-1,3,4-thiadiazol-2-yl)ethyl]amino}benzene-1-sulfonamide] | 140 | 170 | 20 µM | 100 | 130 | 83 | – | – | 1.7 | – | – | – | – | – | – | – |
| CC(C)=NNC(=O)CCNc1ccc(S(N)(=O)=O)cc1 [Compound 11, 4-{[2-(N'-Propan-2-ylidenehydrazinecarbonyl)ethyl]amino}benzene-1-sulfonamide] | 71.4 | 45.5 | 7.14 µM | 28.6 | 33.3 | 50 | – | – | – | 216 to 217 | – | – | – | – | – | – |
| CC(=NNC(=O)CCNc1ccc(S(N)(=O)=O)cc1)c1ccccc1 [Compound 12, 4-{(2-[N'-(1-Phenylethylidene)hydrazinecarbonyl]ethyl}amino]benzene-1-sulfonamide] | 25 | 15.4 | 1.85 µM | 12.5 | 33.3 | 5.56 | – | – | – | 185 to 186 | – | – | – | – | – | – |
| NS(=O)(=O)c1ccc(NCCC(=O)NN=C(c2ccccc2)c2ccccc2)cc1 [Compound 13, 4-({2-[N'-(Diphenylmethylidene)hydrazinecarbonyl]ethyl}amino)benzene-1-sulfonamide] | 25 | 11.5 | 1.43 µM | 16.7 | 50 | 4.35 | – | – | – | 170 to 171 | – | – | – | – | – | – |
| NS(=O)(=O)c1ccc(NCCC(=O)N/N=C/c2ccc(Br)cc2)cc1 [Compound 14, 4-[(2-{N'-[(4-Bromphenyl)methylidene]hydrazinecarbonyl}ethyl)amino]benzene-1-sulfonamide] | 7.1 | 12.5 | 1.82 µM | 5.88 | 31.3 | 7.14 | – | – | – | 218 to 219 | – | – | – | – | – | – |
| NS(=O)(=O)c1ccc(NCCC(=O)NN=Cc2ccc(Cl)cc2)cc1 [Compound 15, 4-[(2-{N'-[(4-Chlorophenyl)methylidene]hydrazinecarbonyl}ethyl]amino)benzene-1-sulfonamide] | 6.7 | 12.5 | 2 µM | 12.5 | 33.3 | 8.33 | – | – | – | 226 to 227 | – | – | – | – | – | – |
| CN(C)c1ccc(/C=N/NC(=O)CCNc2ccc(S(N)(=O)=O)cc2)cc1 [Compound 16] | 50 | 37 | 8.33 µM | 25 | 33.3 | 55.6 | – | – | – | 179 to 180.5 | – | – | – | – | – | – |
| NS(=O)(=O)c1ccc(NCCC(=O)NN=Cc2ccc([N+](=O)[O-])cc2)cc1 [Compound 17, 4-[(2-{N′-[(4-Nitrophenyl)methylidene]hydrazinecarbonyl]ethyl)amino]benzene-1-sulfonamide] | 25 | 20 | 3.6 µM | 25 | 67 | 50 | – | – | – | 227 to 228.5 | – | – | – | – | – | – |
| Cc1ccc(C)n1NC(=O)CCNc1ccc(S(N)(=O)=O)cc1 [Compound 19] | 25 | 16.7 | 2 µM | 11.1 | 28.6 | 6.25 | – | – | – | – | – | – | – | – | – | – |
| NS(=O)(=O)c1ccc(NCCC(=O)NNC(=O)Nc2ccccc2)cc1 [Compound 20, N-[(Phenylcarbamoyl)amino]-3-[(4-sulfamoylphenyl)amino]propanamide] | 7.1 | 28.6 | 4 µM | 12.5 | 1.85 | 18.5 | – | – | – | – | – | – | – | – | – | – |
| NS(=O)(=O)c1ccc(NCCC(=O)NNC(=S)Nc2ccccc2)cc1 [Compound 21, N-[(Phenylcarbamothioyl)amino]-3-[(4-sulfamoylphenil)amino]propanamide] | 8.3 | 9.09 | 4 µM | 5.56 | 5.56 | 9.09 | – | – | – | – | – | – | – | – | – | – |
| NS(=O)(=O)c1ccc(NCCc2n[nH]c(=S)n2-c2ccccc2)cc1 [Compound 23, 4-{[2-(4-Phenyl-5-sulfanylidene-4,5-dihydro-1H-1,2,4-triazol-3-yl)ethyl]amino}benzene-1-sulfonamide] | 11.1 | 10 | 2 µM | 6.67 | 6.67 | 10 | – | – | – | 253 to 254 | – | – | – | – | – | – |
| NS(=O)(=O)c1ccc(NCCc2n[nH]c(=S)o2)cc1 [Compound 24, 4-{[2-(5-Sulfanylidene-4,5-dihydro-1,3,4-oxadiazol-2-yl)ethyl]amino}benzene-1-sulfonamide] | 33.3 | 12.5 | 4.55 µM | 4.55 | 5.88 | 26.3 | – | – | – | – | – | – | – | – | – | – |
| CCSc1nnc(CCNc2ccc(S(N)(=O)=O)cc2)o1 [Compound 25, 4-({2-[5-(Ethylsulfanyl)-1,3,4-oxadiazol-2-yl]ethyl}amino)benzene-1-sulfonamide] | 28.6 | 5.88 | 1.18 µM | 5.6 | 10.5 | 3.33 | – | – | – | – | – | – | – | – | – | – |
| CN(C)/N=N/c1ccc(S(N)(=O)=O)cc1 [Compound 26] | 13.3 | 0.1 | 0.181 µM | 0.769 | 2.7 | 0.4 | – | – | – | – | – | – | – | – | – | – |
| CCN(CC)/N=N/c1ccc(S(N)(=O)=O)cc1 [Compound 27] | 13.3 | 0.0133 | 0.0714 µM | 0.2 | 0.588 | 0.1 | – | – | – | – | – | – | – | – | – | – |
| NS(=O)(=O)c1ccc(/N=N/N2CCCC2)cc1 [Compound 28] | 13.3 | 0.0333 | 0.133 µM | 0.454 | 1.81 | 0.167 | – | – | – | – | – | – | – | – | – | – |
| NS(=O)(=O)c1ccc(/N=N/N2CCOCC2)cc1 [Compound 29] | 11.8 | 0.029 | 0.1 µM | 0.4 | 3.3 | 0.222 | – | – | – | – | – | – | – | – | – | – |
| NS(=O)(=O)c1ccc(/N=N/N2CCCCC2)cc1 [Compound 30] | 10 | 0.00667 | 0.0625 µM | 0.12 | 0.77 | 0.0667 | – | – | – | – | 9.4 | 1500 | 18 | 115 | 10 | – |
| NS(=O)(=O)c1ccc(/N=N/SCCO)cc1 [Compound 32] | 3.2 | 0.0333 | 0.0667 µM | 0.286 | 2 | 1.4 | – | – | – | – | – | – | – | – | – | about six-fold stronger |
| NCCS/N=N/c1ccc(S(N)(=O)=O)cc1 [Compound 33] | 8.3 | 0.5 | 0.278 µM | 1 | 6.25 | 2.86 | – | – | – | – | – | – | – | – | – | – |

— paper PMC6271771, “4-Amino-substituted Benzenesulfonamides as Inhibitors of Human Carbonic Anhydrases” (Molecules, 2014)
